In PubChem BioAssay AID248 (DTP/NCI, 2004):
“And” between values parts separate entries of the source, which are not always exact repeats. Equal values may be shown once. Toxic doses and inconclusive results are not listed. Cut-off read from the data, not from the text of the source: active = T/C of 150% or more; inactive = T/C below 125%.

System: L1210 leukemia ip in BDF1 mice, survival T/C
Experiment: NCI In Vivo Anticancer Drug Screen. Data for tumor model L1210 Leukemia (intraperitoneal) in B6D2F1 (BDF1) mice
Conditions: endpoint: mean survival time, higher = longer survival
Outline: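 Ratio derived from survival: compound-dosed mice over vehicle-dosed mice, all bearing a transplantable tumor.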

[1] = dose: 100.0 mg/kg/injection, schedule: Q01DX009 (ip), vehicle: saline
[2] = dose: 100.0 mg/kg/injection, schedule: Q04DX003 (ip), vehicle: saline
[3] = dose: 200.0 mg/kg/injection, schedule: Q01DX009 (ip), vehicle: saline
[4] = dose: 200.0 mg/kg/injection, schedule: Q04DX003 (ip), vehicle: saline
[5] = dose: 100.0 mg/kg/injection, schedule: Q01DX001 (ip), vehicle: Klucel (hydroxypropylcellulose) (HPC)
[6] = dose: 100.0 mg/kg/injection, schedule: Q04DX003 (ip), vehicle: Klucel (hydroxypropylcellulose) (HPC)
[7] = dose: 200.0 mg/kg/injection, schedule: Q01DX001 (ip), vehicle: Klucel (hydroxypropylcellulose) (HPC)
[8] = dose: 200.0 mg/kg/injection, schedule: Q04DX003 (ip), vehicle: Klucel (hydroxypropylcellulose) (HPC)
[9] = dose: 400.0 mg/kg/injection, schedule: Q01DX001 (ip), vehicle: Klucel (hydroxypropylcellulose) (HPC)
[10] = dose: 400.0 mg/kg/injection, schedule: Q04DX003 (ip), vehicle: Klucel (hydroxypropylcellulose) (HPC)
[11] = dose: 100.0 mg/kg/injection, schedule: Q01DX009 (ip), vehicle: saline with Tween-80
[12] = dose: 200.0 mg/kg/injection, schedule: Q01DX009 (ip), vehicle: saline with Tween-80
[13] = dose: 400.0 mg/kg/injection, schedule: Q01DX009 (ip), vehicle: saline with Tween-80
[14] = dose: 25.0 mg/kg/injection, schedule: Q04DX002 (ip), vehicle: saline
[15] = dose: 50.0 mg/kg/injection, schedule: Q04DX002 (ip), vehicle: saline
[16] = dose: 100.0 mg/kg/injection, schedule: Q04DX002 (ip), vehicle: saline
[17] = dose: 100.0 mg/kg/injection, schedule: Q04DX003 (ip), vehicle: saline with Tween-80
[18] = dose: 200.0 mg/kg/injection, schedule: Q04DX003 (ip), vehicle: saline with Tween-80
[19] = dose: 400.0 mg/kg/injection, schedule: Q04DX003 (ip), vehicle: saline with Tween-80
[20] = dose: 25.0 mg/kg/injection, schedule: Q04DX003 (ip), vehicle: Klucel (hydroxypropylcellulose) (HPC)
[21] = dose: 50.0 mg/kg/injection, schedule: Q04DX003 (ip), vehicle: Klucel (hydroxypropylcellulose) (HPC)

Measured: T/C

CCOC(=O)/C=C/c1c[nH]c(=O)[nH]c1=O
inactive: [1] 109 % of control | [2] 103 % of control | [3] 111 % of control | [4] 97 % of control | dose: 400.0 mg/kg/injection, schedule: Q01DX009 (ip), vehicle: saline 105 % of control | dose: 400.0 mg/kg/injection, schedule: Q04DX003 (ip), vehicle: saline 94 % of control

O=C1C(Cl)=C(NCc2ccco2)C(=O)c2ccccc21
inactive: dose: 77.0 mg/kg/injection, schedule: Q01DX Z (ip), vehicle: methylcellulose (MC) 89 % of control | dose: 116.0 mg/kg/injection, schedule: Q01DX Z (ip), vehicle: methylcellulose (MC) 87 % of control | dose: 175.0 mg/kg/injection, schedule: Q01DX Z (ip), vehicle: methylcellulose (MC) 95 % of control

O=c1c2c([nH]c3ccccc13)CCCC2
inactive: [5] 97 % of control | [6] 97 % of control | [7] 88 % of control | [8] 94 % of control | [9] 93 % of control | [10] 101 % of control

CC1C[N+](C)=C2CCCCC2=C1N (centres undefined)
inactive: dose: 6.25 mg/kg/injection, schedule: Q01DX009 (ip), vehicle: saline 105 % of control | dose: 6.25 mg/kg/injection, schedule: Q04DX003 (ip), vehicle: saline 96 % of control | dose: 12.5 mg/kg/injection, schedule: Q01DX009 (ip), vehicle: saline 98 % of control | dose: 12.5 mg/kg/injection, schedule: Q04DX003 (ip), vehicle: saline 98 % of control | dose: 25.0 mg/kg/injection, schedule: Q01DX009 (ip), vehicle: saline 102 % of control | dose: 25.0 mg/kg/injection, schedule: Q04DX003 (ip), vehicle: saline 108 % of control

O=C(O)CCCCC(=O)c1cc(O)ccc1O
inactive: [6] 102 % of control | [8] 104 % of control | [10] 102 % of control

CC(C)CCCC(C)C1CCC2C3CCC4(C)CCCCC4(C)C3CCC12C (centres undefined)
inactive: [5] 98 % of control | [7] 94 % of control | [9] 109 % of control

CC(=O)Nc1ncnn1C(C)=O
inactive: dose: 50.0 mg/kg/injection, schedule: Q01DX009 (ip), vehicle: saline 97 % of control | [1] 96 % of control | [2] 98 % of control | [3] 97 % of control | [4] 95 % of control

CCCCCCCCCCCC[Si](CCCCCCCCCCCC)(c1ccccc1)c1ccccc1
inactive: [11] 91 % of control | [12] 93 % of control | [13] 96 % of control

CC(C)N(C(=O)Nc1cc(C(F)(F)F)ccc1Cl)C1CCCCC1
inactive: dose: 100.0 mg/kg/injection, schedule: Q01DX001 (ip), vehicle: carboxymethylcellulose (CMC) 95 % of control | dose: 100.0 mg/kg/injection, schedule: Q01DX009 (ip), vehicle: carboxymethylcellulose (CMC) 92 % of control and 88 % of control | dose: 100.0 mg/kg/injection, schedule: Q04DX002 (ip), vehicle: carboxymethylcellulose (CMC) 97 % of control | dose: 100.0 mg/kg/injection, schedule: Q04DX003 (ip), vehicle: carboxymethylcellulose (CMC) 96 % of control | dose: 200.0 mg/kg/injection, schedule: Q01DX001 (ip), vehicle: carboxymethylcellulose (CMC) 90 % of control | dose: 200.0 mg/kg/injection, schedule: Q01DX009 (ip), vehicle: carboxymethylcellulose (CMC) 93 % of control and 100 % of control | dose: 200.0 mg/kg/injection, schedule: Q04DX002 (ip), vehicle: carboxymethylcellulose (CMC) 98 % of control and 108 % of control | dose: 200.0 mg/kg/injection, schedule: Q04DX003 (ip), vehicle: carboxymethylcellulose (CMC) 96 % of control | dose: 400.0 mg/kg/injection, schedule: Q01DX001 (ip), vehicle: carboxymethylcellulose (CMC) 93 % of control | dose: 400.0 mg/kg/injection, schedule: Q01DX009 (ip), vehicle: carboxymethylcellulose (CMC) 95 % of control | dose: 400.0 mg/kg/injection, schedule: Q04DX002 (ip), vehicle: carboxymethylcellulose (CMC) 87 % of control and 90 % of control | dose: 400.0 mg/kg/injection, schedule: Q04DX003 (ip), vehicle: carboxymethylcellulose (CMC) 91 % of control

CN=C1N[N+]2=CCCCC2S1 (centres undefined)
inactive: [14] 86 % of control | dose: 40.0 mg/kg/injection, schedule: Q01DX009 (ip), vehicle: saline 95 % of control | [15] 111 % of control | dose: 60.0 mg/kg/injection, schedule: Q01DX009 (ip), vehicle: saline 104 % of control | dose: 80.0 mg/kg/injection, schedule: Q01DX009 (ip), vehicle: saline 107 % of control | [16] 99 % of control

Cc1c2oc3c(C)ccc(C(=O)NCCN4CCCCC4)c3nc-2c(C(=O)NCCN2CCCCC2)c(N)c1=O
inactive: [16] 103 % of control | dose: 200.0 mg/kg/injection, schedule: Q04DX002 (ip), vehicle: saline 109 % of control

C#CCN(C)CCO
inactive: [17] 97 % of control | [18] 106 % of control | [19] 100 % of control

CCCCCCCCCCCCP(=O)(O)O
inactive: dose: 75.0 mg/kg/injection, schedule: Q01DX001 (ip), vehicle: other 94 % of control | dose: 150.0 mg/kg/injection, schedule: Q01DX001 (ip), vehicle: other 97 % of control

CCOC(=O)CC(c1cccc2ccccc12)c1cccc2ccc3ccccc3c12 (centres undefined)
inactive: [6] 92 % of control | [8] 86 % of control | [10] 91 % of control

NC(=S)N/N=C/c1ccc(Br)cn1
inactive: dose: 6.25 mg/kg/injection, schedule: Q01DX009 (ip), vehicle: saline with Tween-80 117 % of control | dose: 12.5 mg/kg/injection, schedule: Q01DX009 (ip), vehicle: saline with Tween-80 113 % of control

CCc1cc2oc(C)c(C)c2c(N=Nc2ccccc2OC)c1O
inactive: dose: 100.0 mg/kg/injection, schedule: Q04DX002 (ip), vehicle: Klucel (hydroxypropylcellulose) (HPC) 105 % of control | dose: 200.0 mg/kg/injection, schedule: Q04DX002 (ip), vehicle: Klucel (hydroxypropylcellulose) (HPC) 102 % of control | dose: 400.0 mg/kg/injection, schedule: Q04DX002 (ip), vehicle: Klucel (hydroxypropylcellulose) (HPC) 102 % of control

C[AsH](C)CC[AsH](C)C.C[AsH](C)CC[AsH](C)C.C[AsH](C)CC[AsH](C)C.[Ni]
inactive: [14] 103 % of control | [15] 109 % of control

CN(Cc1ccccc1)c1cc(=O)[nH]c(=O)[nH]1
inactive: [6] 102 % of control | [8] 96 % of control | [10] 100 % of control

CN/N=C/c1ccc(C(=O)NC(C)C)cc1
inactive: [20] 98 % of control | [21] 102 % of control | [6] 102 % of control | [8] 109 % of control

CC[N+](CC)(CC)CCNC(c1ccccc1)C(Cl)(Cl)Cl (centres undefined)
inactive: dose: 12.5 mg/kg/injection, schedule: Q01DX001 (ip), vehicle: saline 97 % of control | dose: 25.0 mg/kg/injection, schedule: Q01DX001 (ip), vehicle: saline 87 % of control | dose: 50.0 mg/kg/injection, schedule: Q01DX001 (ip), vehicle: saline 95 % of control

O=c1[nH]cc(B(O)O)c(=O)[nH]1
inactive: dose: 100.0 mg/kg/injection, schedule: Q01DX001 (ip), vehicle: saline 94 % of control | dose: 200.0 mg/kg/injection, schedule: Q01DX001 (ip), vehicle: saline 98 % of control | dose: 400.0 mg/kg/injection, schedule: Q01DX001 (ip), vehicle: saline 98 % of control

COc1ccc(C[n+]2cccc(CNC(=O)COc3ccc(Cl)c(Cl)c3)c2)cc1
inactive: [20] 98 % of control | [21] 106 % of control | [6] 107 % of control and 108 % of control

C=CC(C)C1CCC2(C)C3=C(C(=O)CC12C)C1(C)CCC(OC(C)=O)C(C)(C)C1=C(OC(C)=O)C3=O (centres undefined)
inactive: [17] 91 % of control | [18] 91 % of control | [19] 87 % of control

CN(C)/C=N/n1cnc2c(ncn2C2OC(CO)C(O)C2O)c1=O (centres undefined)
inactive: dose: 100.0 mg/kg/injection, schedule: Q01DX003 (ip), vehicle: saline 102 % of control | dose: 200.0 mg/kg/injection, schedule: Q01DX003 (ip), vehicle: saline 94 % of control

CCOC(=O)C(Cc1ccccc1Cl)(Cc1ccccc1Cl)c1ccccc1
inactive: [11] 92 % of control | [12] 90 % of control | [13] 90 % of control
